The subject of one experiment is CCRF-CEM human tumors. As to the kind of experiment: Mouse Study IV (xenograft with CCRF-CEM implants). In kind it is in vivo, SCID mice. To be noted: MTX 7.5 mg/kg/injection + TK-112690 30 mg/kg ±3 hrs ip; day 27; p=1. As for the experimental part:
In this study, n=10 SCID mice per dose group were treated with CCRF-CEM human tumors and the tumors allowed to grow to a size of approximately 100 mg. Then the animals were treated by intraperitoneal (ip) injection with either control 20% DMSO/80% PBS (1×/day)×5 days (Group 1), MTX 7.5 mg/kg/injection (1×/day)×5 days (Group 2) or MTX 7.5 mg/kg/inj. (1×/day)×5 days+TK-112690 30 mg/kg/inj.±3 hrs (group 3). The Figure provides tumor sizes in each of the 3 groups on Day 27 of the study.
A xenograft study was performed to analyze the effect of TK-112690. administration on the in vivo efficacy of MTX against a human cancer. Human CCRF-CEM (T-ALL) cells were implanted subcutaneously into SCID mice. Tumor volumes were recorded on a regular basis, and once tumors had become established, treatment was given. […] All treatments were given ip, and TK-112690 was give 3 hours prior to and 3 hours after MTX administration.

Experiment [1] has as its target human small intestinal UPase enzyme (Homo sapiens (Human), UniProt Q16831). As to the kind of experiment: UPase inhibition in human small intestinal tissue homogenate (HPLC of uracil). In kind it is biochemical. The note with it: 5 mM uridine, 37° C., pH 7.3. The procedure:
A range of TK-112690 doses were studied for the their ability to prevent metabolic breakdown of uridine through the in vitro inhibition of mouse and human small intestinal UPase enzyme. UPase activity was determined by HPLC analysis using UV detection of uracil concentration (UPase catabolizes uridine into uracil and ribose-1-phosphate). The UPase enzyme material was prepared from homogenized mouse and human being small intestinal tissue. TK-112690 was dissolved in water (50 mg/ml) and analyzed for UPase inhibition in aqueous solution containing 5 mM uridine, 0.01 M Tris, 0.01 M phosphate, 1 mM EDTA, and 1 mM DTT. Reactions were performed at 37° C. at pH of 7.3.
[…] inhibition of mouse and human UPase was determined from measurements of uracil determined in homogenates by reverse phase HPLC using UV detection. […]
The aim of this study was to evaluate TK-112690 in vivo as an inhibitor of uridine phosphorylase (UPase) enzyme activity. […] Detection of UPase activity was determined by HPLC analysis using UV detection of uracil concentration (UPase catabolizes uridine into uracil and ribose-1-phosphate).
The UPase enzyme material was prepared from homogenized mouse and human being small intestinal tissue. TK-112690 was dissolved in water (50 mg/ml) and analyzed for UPase inhibition in aqueous solution containing 5 mM uridine, 0.01 M Tris, 0.01 M phosphate, 1 mM EDTA, and 1 mM DTT. […]

Experiment [2] can be described thus: Mouse Study I (protection from MTX-induced weight loss, LPS/MTX model). In kind it is in vivo, C57BL/6 mice. The note with it: 10 or 30 mg/kg ip 3 hr before and after MTX, LPS+MTX; p<0.004 (10 mg/kg), p<0.0005 (30 mg/kg) vs LPS+MTX. As for the experimental part: C57BL/6 mice (10 animals/treatment group) were dosed on Day 1 with LPS (5 μg, i.p.). On Day 2, the animals were treated with 200 mg/kg MTX+10 or 30 mg/kg TK-112690 3 hr before and 3 hr after the MTX treatment. On Day 3, the animals were dosed MTX 100 mg/kg+10 or 30 mg/kg TK±3 hr. On day 8, the Day 8-Day 1 weight was determined and results subject to ANOVA. Group 1=saline alone, Group 2=MTX alone, Group 3=LPS alone, Group 4=MTX+LPS, Group 5=10 mg/kg TK-112690+MTX+LPS or Group 6=30 mg/kg TK-112690+MTX+LPS.
This mouse model is modified from a published procedure (de Koning et al., Int Immunol 18: 941 (2006)). Mice are treated on day one with a single intraperitoneal (ip) dose of lipopolysaccharide (LPS), followed by two consecutive days with 200 and 100 mg/kg ip methotrexate, respectively. Controls include saline alone for days 1, 2, and 3, saline on day 1 plus MTX on days 2 and 3 and LPS on day one with saline injection on days 2 and 3. Experimental groups are given LPS on day one and 10 or 30 mg/kg, TK-112690, a representative 2,2′-anhydropyrimidine test article, ip 3 hours before, and 3 hours after, methotrexate injection on days 2 and 3. Animal weights are measured every day after the first injection with experiment termination five days after the second methotrexate injection (day 8). Weight loss is representative of MTX-induced toxicity, and one aspect of MTX-induced mucositis. […]

Sequence of human small intestinal UPase enzyme (Q16831 whole entry): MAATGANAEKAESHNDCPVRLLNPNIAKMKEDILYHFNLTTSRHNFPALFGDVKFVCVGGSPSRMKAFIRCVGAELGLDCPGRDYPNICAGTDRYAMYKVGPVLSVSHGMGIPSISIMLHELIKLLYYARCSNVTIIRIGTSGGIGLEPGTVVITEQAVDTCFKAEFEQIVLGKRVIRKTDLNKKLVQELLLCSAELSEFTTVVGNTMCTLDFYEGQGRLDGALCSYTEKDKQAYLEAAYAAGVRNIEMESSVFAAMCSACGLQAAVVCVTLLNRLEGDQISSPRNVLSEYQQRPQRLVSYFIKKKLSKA

Regarding `Cc1cn2c(nc1=O)O[C@H]1[C@H](O)[C@@H](CO)O[C@H]12` [TK-112690, 2,2′-anhydro-5-methyluridine], in the experiment on CCRF-CEM human tumors, the “tumor volume, MTX+TK-112690 versus MTX” value was “not significantly different”. In experiment [1], this molecule displayed an IC50 of 20 µM. For the same molecule, the “protection from MTX-induced weight loss (Day 8-Day 1 mean weight change)” value in experiment [2] is “highly significant”.

A word on the IC50: it is the concentration at which inhibition is half-maximal. The low end stands for higher potency, the high end for lower potency.
